According to PMC4485422 (Neuron, 2015):
pIC50: −log10 of the molar value.

Target: sepiapterin reductase (hSPR) (Homo sapiens, UniProt P35270)
Experiment: cell-free TR-FRET binding assay

Sequence of sepiapterin reductase (hSPR) (P35270 whole entry): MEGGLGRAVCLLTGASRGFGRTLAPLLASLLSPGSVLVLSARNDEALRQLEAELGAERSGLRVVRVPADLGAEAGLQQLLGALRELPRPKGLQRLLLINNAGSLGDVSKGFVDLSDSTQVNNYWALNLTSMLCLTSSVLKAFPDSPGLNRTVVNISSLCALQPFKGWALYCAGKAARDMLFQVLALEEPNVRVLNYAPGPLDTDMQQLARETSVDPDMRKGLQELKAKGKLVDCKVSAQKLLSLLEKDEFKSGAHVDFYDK

SMILES: CC(=O)NCCc1c[nH]c2ccc(O)cc12 [NAS, N-acetylserotonin]
- pIC50: 5.72
